Laboratory results published in patent publication US20250213529A1, “5-METHOXY-N.N-[…][…] THE TREATMENT OF PSYCHOMOTOR RETARDATION” (GH RESEARCH IRELAND LIMITED, priority 2022, published 2025).

Experiments:
[1] = tested on: Escherichia coli (WP2 uvrA pKM101); test: Bacterial mutation test, Escherichia coli; format: cell-based; conditions: up to 5000 pg/plate; absence and presence of rat liver S-9
Description: (§1) These conditions included treatments at concentrations up to […] (the maximum recommended concentration according to current regulatory guidelines), in the absence and in the presence of a rat liver metabolic activation system (S-9).

[2] = tested on: patients with postpartum depression (PPD); test: Clinical trial in patients with postpartum depression; conditions: PPD patient (n=1); for Total MADRS improvement / Total MADRS score: baseline 29; for BPRS Tension improvement: baseline 6
Experimental: The single-arm, open-label clinical trial will involve 15 adult female patients with clinically diagnosed postpartum depression (PPD).
The second dose (12 mg) will only be administered if: • a. […] The 6 mg dose was safe and well-tolerated according to the investigator, • c. Any psychoactive effects (PsE) of the prior dose have subsided, and • d. Pre-dose vital parameters and forced expiratory volume in one second (FEV1) are in normal range, or if outside of the normal range, are not clinically significant according to the investigator. • 3. Similarly, a third dose (18 mg) will only be administered if: • a. […] The 12 mg dose was safe and well-tolerated according to the investigator, and • c. Any PsE of the prior dose have subsided, and • d. Pre-dose vital parameters and forced expiratory volume in one second (FEV1) are in normal range, or if outside of the normal range, are not clinically significant according to the investigator.
The patients will be assessed for a peak psychedelic experience (based on a patient-scored visual analogue scale, the PE scale), sedation, and other endpoints after dosing. Follow-up visits are planned for Day 1, and Day 7 after the dosing day.
The following criteria must be met by all patients considered for clinical trial participation: • 1. Is female and in the age range between 18 and 45 years (inclusive) at screening. • 2. Has a body mass index (BMI) in the range of 18.5 and 35 kg/m^2 (inclusive) at screening. • 3. Meets the trial criteria for PPD as assessed by a trial psychiatrist or registered psychologist: • a. Diagnosis of Major Depressive Disorder without psychotic features, confirmed by the Mini-International Neuropsychiatric Interview (MINI), with peri-partum onset that began no earlier than gestation and no later than the first 4 weeks postpartum. • b. Has a Montgomery-Åsberg Depression Rating Scale (MADRS) total score of equal to or greater than 28 at screening and pre-dose on Day 0. • 6. […] Patients must have a negative pregnancy test at screening and on the pre-test day (Day −1). • 5. Is willing to delay start of other antidepressant or anxiety medication until after the end of the trial at Day 7 and agrees to keep any psychotherapy unchanged during the trial.
A potential patient who meets any of the following key exclusion criteria will be excluded from participation in this trial: • 1. Has, based on history, psychiatric assessment, and evaluation of the MINI, a current or prior diagnosis of bipolar disorder, a manic or hypomanic episode, a psychotic disorder, Major Depressive Disorder (MDD) or other mood disorder with psychotic features, obsessive compulsive disorder, post-traumatic stress disorder (PTSD), autism spectrum disorder, borderline personality disorder, schizophrenia, delusional disorder, paranoid personality disorder, schizoaffective disorder, clinically significant intellectual disability, or any other psychiatric comorbidity that renders the patient unsuitable for the trial according to the investigator's judgment. • 2. Has one or more first or second degree relatives with a current or previously diagnosed bipolar disorder, psychotic disorder or other mood disorder (including MDD) with psychotic features. • 3. Is in the judgement of a trial psychiatrist or registered psychologist, at significant risk for suicide based on history, psychiatric assessment, and evaluation of suicidal ideation and suicidal behaviour based on the Columbia-Suicide Severity Rating Scale (C-SSRS). • 4. Has taken anti-depressive medication within 14 days or 5 half-lives (whichever is longer) prior to dosing (exception: within the last 5 weeks in the case of fluoxetine). • 5.

[3] = Pharmacokinetics of 5-MeO-DMT and bufotenine after inhalation; format: in vivo, human; conditions: after 3 hours, 6, 12, 18 mg
[4] = tested on: Salmonella typhimurium (TA98, TA100, TA1535 and TA1537); test: Bacterial mutation test, Salmonella typhimurium; format: cell-based; conditions: up to 5000 µg/plate; absence and presence of rat liver S-9
Description: as §1

[5] = IDR 6 then 12 mg inhaled, Day 0 score 5
[6] = IDR 6 then 12 mg inhaled, Day 0 score 6
[7] = IDR 6 then 12 mg inhaled, Day 1
[8] = IDR 6 then 12 mg inhaled, Day 7, Day 0 score 5
[9] = IDR 6 then 12 mg inhaled, Day 7, Day 0 score 6
[10] = IDR 6 then 12 mg inhaled, Day 7
[11] = IDR 6 then 12 mg inhaled, Day 7 vs Day 0

COc1ccc2[nH]cc(CCN(C)C)c2c1 [5-MeO-DMT]
Induction of mutation [1]: did not induce mutation
Tolerability of the inhalation procedure [2]: well tolerated with no inhalation-related adverse events
Reported adverse events (cramping left abdominal pain and headache) ([2]; Day 0): mild, short-lasting and resolved spontaneously
BIMF total score improvement, percent ([2]; Day 7, from 92 to 105): 14%
ECG, safety laboratory analyses, CADSS ([2]; ECG 3 hours, laboratory 7 days, CADSS 3 hours, 1 day, 7 days): unremarkable
MADRS remission (MADRS total score equal or less than 10) ([2]; IDR 6 then 12 mg inhaled): fulfilled
MADRS response (at least 50% improvement from baseline) ([2]; IDR 6 then 12 mg inhaled): fulfilled
Onset of clinical response after administration ([2]; IDR 6 then 12 mg inhaled): ≤ 2 h
Time to clinical remission after administration ([2]; IDR 6 then 12 mg inhaled): ≤ 2 h
Durability of clinical response ([2]; IDR 6 then 12 mg inhaled, given once): sustained over the 7-day follow-up period
Total MADRS improvement ([2]; IDR 6 then 12 mg inhaled, 2 hr): 24
Total MADRS score ([2]; IDR 6 then 12 mg inhaled, 2 hr): 5
BIMF item 19 (As time goes on, I am getting better at taking care of my baby) Δ (Day 7) ([2]; IDR 6 then 12 mg inhaled, Day 0 score 0): 1
BIMF item 13 (I am taking good care of my physical needs) Δ (Day 7) ([2]; IDR 6 then 12 mg inhaled, Day 0 score 4): 1
BIMF item 5 (I am able to relax and enjoy time with my baby) Δ (Day 7) [2, 5]: 1
BIMF item 9 (I am getting enough encouragement from other people) Δ (Day 7) [2, 5]: 1
BIMF item 10 (I trust my own feelings (instincts) when it comes to taking care of my baby) Δ (Day 7) [2, 5]: 1
BIMF item 11 (I take a little time each week to do something for myself) Δ (Day 7) [2, 5]: 1
BIMF item 17 (I am able to take care of my baby and my other responsibilities) Δ (Day 7) [2, 5]: 0
BIMF item 3 (I am comfortable with the way I've chosen to feed my baby) Δ (Day 7) [2, 6]: 0
BIMF item 6 (There are people in my life that I can trust to care for my baby when I need a break) Δ (Day 7) [2, 6]: 0
BIMF item 8 (I am getting enough adult interaction) Δ (Day 7) [2, 6]: 0
BIMF item 12 (I am taking good care of my baby's physical needs) Δ (Day 7) [2, 6]: 0
BIMF item 14 (I make good decisions about my baby's health and well being) Δ (Day 7) [2, 6]: 0
BIMF item 20 (I am satisfied with the job I am doing as a new mother) Δ (Day 7) [2, 6]: −1
BIMF TOTAL Δ (Day 7) ([2]; IDR 6 then 12 mg inhaled, Day 0 score 92): 13
BPRS Tension improvement [2, 7]: 5
Total MADRS improvement [2, 7]: 29
Total MADRS score [2, 7]: 0
BIMF item 19 (As time goes on, I am getting better at taking care of my baby) score ([2]; IDR 6 then 12 mg inhaled, Day 7, Day 0 score 0): 1
BIMF item 16 (I worry about how other people judge me (as a mother)) score ([2]; IDR 6 then 12 mg inhaled, Day 7, Day 0 score 3): 5
BIMF item 13 (I am taking good care of my physical needs) score ([2]; IDR 6 then 12 mg inhaled, Day 7, Day 0 score 4): 5
BIMF item 5 (I am able to relax and enjoy time with my baby) score [2, 8]: 6
BIMF item 9 (I am getting enough encouragement from other people) score [2, 8]: 6
BIMF item 10 (I trust my own feelings (instincts) when it comes to taking care of my baby) score [2, 8]: 6
BIMF item 11 (I take a little time each week to do something for myself) score [2, 8]: 6
BIMF item 17 (I am able to take care of my baby and my other responsibilities) score [2, 8]: 5
BIMF functional domain Adjustment score ([2]; IDR 6 then 12 mg inhaled, Day 7, Day 0 score 5, maximum 12): 6
BIMF item 3 (I am comfortable with the way I've chosen to feed my baby) score [2, 9]: 6
BIMF item 6 (There are people in my life that I can trust to care for my baby when I need a break) score [2, 9]: 6
BIMF item 8 (I am getting enough adult interaction) score [2, 9]: 6
BIMF item 12 (I am taking good care of my baby's physical needs) score [2, 9]: 6
BIMF item 14 (I make good decisions about my baby's health and well being) score [2, 9]: 6
BIMF item 20 (I am satisfied with the job I am doing as a new mother) score [2, 9]: 5
BIMF functional domain Self Care score ([2]; IDR 6 then 12 mg inhaled, Day 7, Day 0 score 9, maximum 18): 13
BIMF functional domain Infant Care score ([2]; IDR 6 then 12 mg inhaled, Day 7, Day 0 score 12, maximum 12): 12
BIMF functional domain Mother-Child Interaction score ([2]; IDR 6 then 12 mg inhaled, Day 7, Day 0 score 15, maximum 18): 17
BIMF functional domain Social Support score ([2]; IDR 6 then 12 mg inhaled, Day 7, Day 0 score 17, maximum 18): 18
BIMF functional domain Management score ([2]; IDR 6 then 12 mg inhaled, Day 7, Day 0 score 28, maximum 36): 33
BIMF functional domain Psychological Well-being score ([2]; IDR 6 then 12 mg inhaled, Day 7, Day 0 score 44, maximum 60): 53
Total MADRS improvement [2, 10]: 28
Total MADRS score [2, 10]: 1
BIMF functional domain Adjustment % Improvement [2, 11]: 20.00%
BIMF functional domain Infant Care % Improvement [2, 11]: 0.00%
BIMF functional domain Management % Improvement [2, 11]: 18%
BIMF functional domain Self Care % Improvement [2, 11]: 44%
BPRS Tension improvement ([2]; IDR 6 then 12 mg inhaled, Discharge): 5
PES score (intensity of the psychedelic experience) ([2]; nominal dose of 6 mg inhaled): 17.3
Changes in vital parameters ([2]; shortly after administration): temporary, clinically non-relevant increase in heart rate and blood pressure
PES score (intensity of the psychedelic experience) ([2]; subsequent dose of 12 mg inhaled): 85.7
Detectability in plasma [3]: no longer detectable
Induction of mutation [4]: did not induce mutation
